The term Ki denotes the equilibrium dissociation constant of an inhibitor or competing ligand from its target.

Read-outs that look alike come from different tables or passages of the source.

Here are results for 4 compounds from PMC10223470 (Molecules, 2023).

For experiment [1], the target named is T1, human dopamine D1 receptor (Homo sapiens, UniProt P21728).
T1 construct: expressed in transfected cells; host or cells: CHO-K1
In words: Competition radioligand binding at human D1 receptor ([3H]-SCH-23390). The note with it: mean ± SEM of 2 independent experiments, read-out: huD1 % inh. at 10 µM. On the procedure:
(§1) Competition radioligand binding assays were performed on membranes isolated from cell lines stably expressing the cloned human receptors, which were either in-house or commercially available. […] Assays (250 μL assay final volume) were carried out in 96-well polypropylene plates in duplicate. In short, the suspension of appropriate membrane protein was incubated in an assay buffer with the addition of the corresponding radioligand, in the presence or absence of a tested compound or reference compound. […] After the incubation, the content of the test plates was transferred to 96 well plates with glass fiber filter GF/B or GF/C, previously pretreated with polyethyleneimine (PEI), and rapidly filtered with the use of vacuum, followed by rapid washing with cold (4 °C) wash buffer. After that, the filter plates were dried at 60 °C for 1 h. Then, 30 μL of liquid scintillation cocktail (UniverSol-ES, MP Biomedicals, Solon, OH, USA) was added to each well of the filter plates, and the radioactivity was measured in a MicroBeta^2 microplate scintillation counter (PerkinElmer, Madrid, Spain).
(§2) Competition binding curves were fitted to a one-site competition binding model (Fit Ki) with the use of Prism 7 software (GraphPad, San Diego, CA, USA). logKi (log of the equilibrium dissociation constant (Ki)) values were obtained after constraining the concentration of radioligand employed in the assay and its dissociation constant (KD) as determined in saturation radioligand binding assays.

The target of experiment [2] is T2, human D2S receptor (Homo sapiens, UniProt P14416).
T2 construct: expressed in transfected cells; host or cells: CHO-K1
T2 sequence (P14416 1-414 isoform P14416-2): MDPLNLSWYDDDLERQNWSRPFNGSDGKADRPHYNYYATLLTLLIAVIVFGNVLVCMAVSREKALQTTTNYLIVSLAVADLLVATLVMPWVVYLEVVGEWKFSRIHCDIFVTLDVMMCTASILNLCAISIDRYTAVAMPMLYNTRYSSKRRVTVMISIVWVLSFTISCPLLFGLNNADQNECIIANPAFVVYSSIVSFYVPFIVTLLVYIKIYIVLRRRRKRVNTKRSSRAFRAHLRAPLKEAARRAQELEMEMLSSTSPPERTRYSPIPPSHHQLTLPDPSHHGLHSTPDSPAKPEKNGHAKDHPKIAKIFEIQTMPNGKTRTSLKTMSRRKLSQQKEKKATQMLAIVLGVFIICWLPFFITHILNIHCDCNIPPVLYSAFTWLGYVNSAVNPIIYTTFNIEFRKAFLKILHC
In words: Competition radioligand binding at human D2 receptor ([3H]-Spiperone, CHO-K1 membranes). The note with it: mean ± SEM of 2–3 independent experiments in duplicate; read-out: huD2 Ki. On the procedure: Experiments were carried out in membranes isolated from a CHO-K1 cell line stably overexpressing the cloned human D2S receptor.
as §1, §2

For experiment [3], the target named is T2, human D2S receptor. In words: Functional assays of cAMP signalling at D2 receptors (CHO-K1 cells, HTRF). Type of experiment: cell-based. The note with it: for Kb: antagonism of 1 µM dopamine response; for efficacy at D2 receptor (mode of action): cAMP signaling, CHO-K1 cells. As to the method:
The assessment of the activity of selected compounds at the D2 receptor was performed in cell-based functional assays of cAMP signaling, in the CHO-K1 cell line with stable expression of the cloned human D2S receptor, which was also employed for the radioligand binding assays. For D2 receptor antagonism, test compounds were dispensed into an empty 96-well plate (Isoplate-96 Black Frame White Well, PerkinElmer España SL, Madrid, Spain) with the use of the dispensing noncontact Echo 550 acoustic liquid handler (LABCYTE Inc., San Jose, CA, USA). Compounds were handled from frozen 10^−2 M stock solutions in 100% DMSO, from which serial 1000× solutions were prepared in 100% DMSO at the time of the assay, keeping vehicle concentration (0.1% DMSO) constant in the assay. Vials containing viable frozen cells were quickly thawed in a 37 °C water bath and cells were seeded into the assay plate in assay buffer (kit stimulation buffer containing 500 µM 3-isobutyl-1-methylxanthine (IBMX), which was directly added to the buffer as powder). […] After 10 min incubation at 37 °C, 10 µM forskolin was added to the corresponding wells, and incubation was continued for 5 min. After this time, cellular cAMP levels were quantified using the homogeneous time-resolved fluorescence (HTRF)-based cAMP Gs dynamic kit (Cisbio, Bioassays, Codolet, France) according to the manufacturer’s protocol. […] Basal cAMP levels were determined in control wells in the absence of compound, agonist, and forskolin.
(TR-FRET usually uses a lanthanide donor and a delayed reading to cut background.)

Experiment [4] concerns the target T3, human 5-HT2A receptor (Homo sapiens, UniProt P28223).
T3 construct: expressed in transfected cells; host or cells: CHO-K1
In words: Competition radioligand binding at human 5-HT2A receptor ([3H]-Ketanserin). The note with it: mean ± SEM of 2 independent experiments, read-out: hu5-HT2A % inh. at 10 µM. As to the method: as §1, §2

Experiment [5] has as its target T4, human 5-HT1A receptor (Homo sapiens, UniProt P08908).
T4 construct: expressed in transfected cells; host or cells: HEK293
T4 sequence (P08908 1-422): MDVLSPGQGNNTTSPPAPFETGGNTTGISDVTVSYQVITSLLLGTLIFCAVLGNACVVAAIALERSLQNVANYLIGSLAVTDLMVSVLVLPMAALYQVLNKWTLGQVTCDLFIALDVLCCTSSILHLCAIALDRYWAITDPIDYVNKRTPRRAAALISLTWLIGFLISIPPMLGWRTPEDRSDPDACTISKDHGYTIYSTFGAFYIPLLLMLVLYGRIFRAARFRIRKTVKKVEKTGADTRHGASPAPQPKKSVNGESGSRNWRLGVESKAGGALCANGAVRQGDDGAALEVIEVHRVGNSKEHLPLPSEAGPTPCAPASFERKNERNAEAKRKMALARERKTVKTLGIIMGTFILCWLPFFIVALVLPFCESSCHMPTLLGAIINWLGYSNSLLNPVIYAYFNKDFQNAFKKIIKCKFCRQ
In words: Competition radioligand binding at human 5-HT1A receptor ([3H]-8-OH-DPAT). The note with it: mean ± SEM of 2 independent experiments, read-out: hu5-HT1A % inh. at 10 µM. As to the method:
as §1, §2

The target of a further experiment is T5, human 5-HT7 receptor (Homo sapiens, UniProt P34969).
T5 construct: expressed in transfected cells; host or cells: HEK293
T5 sequence (P34969 whole entry): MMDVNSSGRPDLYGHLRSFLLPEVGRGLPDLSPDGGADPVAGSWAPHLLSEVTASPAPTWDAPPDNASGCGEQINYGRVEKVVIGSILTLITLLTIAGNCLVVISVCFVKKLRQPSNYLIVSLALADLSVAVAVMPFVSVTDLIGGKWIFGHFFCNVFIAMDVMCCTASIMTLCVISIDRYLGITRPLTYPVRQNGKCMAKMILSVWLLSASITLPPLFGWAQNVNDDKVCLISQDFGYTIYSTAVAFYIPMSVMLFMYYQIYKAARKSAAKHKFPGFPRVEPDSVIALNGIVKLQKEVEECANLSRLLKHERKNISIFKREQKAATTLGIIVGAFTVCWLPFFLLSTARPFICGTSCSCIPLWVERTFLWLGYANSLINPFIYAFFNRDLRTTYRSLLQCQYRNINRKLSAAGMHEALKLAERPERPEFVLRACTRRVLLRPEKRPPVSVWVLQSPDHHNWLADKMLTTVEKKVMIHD
In words: Competition radioligand binding at human 5-HT7 receptor ([3H]-SB269970). The note with it: mean ± SEM of 2 independent experiments, read-out: hu5-HT7 % inh. at 10 µM. As to the method: as §1, §2

For experiment [6], the target named is T6, human dopamine D3 receptor (Homo sapiens, UniProt P35462).
T6 construct: expressed in transfected cells; host or cells: CHO-K1
T6 sequence (P35462 whole entry): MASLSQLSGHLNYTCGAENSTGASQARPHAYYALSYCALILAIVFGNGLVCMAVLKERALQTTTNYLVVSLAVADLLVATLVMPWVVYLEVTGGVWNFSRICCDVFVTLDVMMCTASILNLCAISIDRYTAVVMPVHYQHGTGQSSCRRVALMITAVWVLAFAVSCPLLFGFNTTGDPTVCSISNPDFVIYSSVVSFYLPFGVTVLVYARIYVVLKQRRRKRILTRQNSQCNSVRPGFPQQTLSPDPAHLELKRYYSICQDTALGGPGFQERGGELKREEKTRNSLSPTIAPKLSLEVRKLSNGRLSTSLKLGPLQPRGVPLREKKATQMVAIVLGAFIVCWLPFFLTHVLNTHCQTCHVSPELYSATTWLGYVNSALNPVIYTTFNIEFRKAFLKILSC
In words: Competition radioligand binding at human D3 receptor ([3H]-Spiperone). The note with it: mean ± SEM of 2 independent experiments, read-out: huD3 % inh. at 10 µM. As to the method: as §1, §2

Experiment [7] has as its target T3, human 5-HT2A receptor. The note with it: ref [10]; cited from earlier work.
The target in experiment [8] is T4, human 5-HT1A receptor. The note with it: ref [10]; cited from earlier work.
Experiment [9] concerns the target T1, human dopamine D1 receptor. The note with it: ref [10]; cited from earlier work.
In experiment [10] the target is T2, human D2S receptor. The note with it: radioligand binding; ref [10]; read-out: huD2 Ki; cited from earlier work.
Experiment [11] deals with T6, human dopamine D3 receptor. The note with it: ref [10]; cited from earlier work.
Another experiment has as its system mice. In words: Elevated plus-maze (EPM) test. The note with it: 1 mg/kg s.c., 60 min before the test; p < 0.05 versus vehicle. Type of experiment: in vivo. On the procedure:
The experiments were carried out on 6 weeks old naive Swiss male mice (Experimental Medicine Center (OMD), Lublin, Poland), weighing 28–30 g. The cages with mice were located in air-conditioned rooms maintaining the ambient temperature within the range of 23–25 °C. The animals were provided with a natural 12 h day/night cycle, replicating the day and night mode. Each testing group was represented by 8–10 animals, depending on the research schedule. All experiments were conducted according to the National Institute of Health Guidelines for the Care and Use of Laboratory Animals (8th edition) and to the European Community Council Directive for the Care and Use of Laboratory Animals of 22 September 2010 (2010/63/EU) and were approved by the Local Ethical Committee (number of ethical approval: 147/2018).
Compound 17 (25, 50, 75 mg/kg) was suspended in 1% Tween 80 in saline solution and was administered intraperitoneally (i.p.) 60 min before the test. Diazepam (DZ, Relanium, Polfa, Poland) at a dose of 1 mg/kg was diluted in 0.9% saline containing 1% Tween 80 and was administered subcutaneously (s.c.), 60 min before the test. Imipramine hydrochloride (30 mg/kg, Sigma-Aldrich was administered intraperitoneally (i.p.) 60 min before the test. D-amphetamine sulfate (3 mg/kg; Sigma-Aldrich, USA) was given subcutaneously (s.c.). Prior to administration, the agent was dissolved in saline and injected 30 min before the test. Control animals received an (i.p.) or (s.c.) injection of a respective vehicle. All compounds were injected in a manner generally accepted in experimental pharmacology, in an amount of 10 mL/kg body weight.
The experiment was carried out on mice according to the method of Lister. […] The number of entries into the open arms and the time spent in these arms were scored for a 5-min test period. […] The following measures were obtained from the test: the total number of arm entries, the percentage of entries into the open arms, the time spent in the open arms expressed as a percentage of the time spent in both the open and closed arms. […]

Where [12] appears, read: Leff-Dougall variant of Cheng-Prusoff, read-out: D2 Signalling (cAMP) Kb (Mean).

T1 sequence (P21728 whole entry): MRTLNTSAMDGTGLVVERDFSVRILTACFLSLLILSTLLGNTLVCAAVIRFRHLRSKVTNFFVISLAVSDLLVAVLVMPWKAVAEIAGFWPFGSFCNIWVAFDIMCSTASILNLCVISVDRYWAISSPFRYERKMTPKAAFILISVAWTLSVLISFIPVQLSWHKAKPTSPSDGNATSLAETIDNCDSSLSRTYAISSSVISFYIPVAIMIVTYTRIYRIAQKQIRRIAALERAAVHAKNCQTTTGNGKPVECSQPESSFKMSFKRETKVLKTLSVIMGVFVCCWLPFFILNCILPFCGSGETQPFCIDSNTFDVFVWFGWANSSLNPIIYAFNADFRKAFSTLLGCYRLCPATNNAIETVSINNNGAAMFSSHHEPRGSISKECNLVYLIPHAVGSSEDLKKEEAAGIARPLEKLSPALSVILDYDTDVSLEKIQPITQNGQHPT
T3 sequence (P28223 whole entry): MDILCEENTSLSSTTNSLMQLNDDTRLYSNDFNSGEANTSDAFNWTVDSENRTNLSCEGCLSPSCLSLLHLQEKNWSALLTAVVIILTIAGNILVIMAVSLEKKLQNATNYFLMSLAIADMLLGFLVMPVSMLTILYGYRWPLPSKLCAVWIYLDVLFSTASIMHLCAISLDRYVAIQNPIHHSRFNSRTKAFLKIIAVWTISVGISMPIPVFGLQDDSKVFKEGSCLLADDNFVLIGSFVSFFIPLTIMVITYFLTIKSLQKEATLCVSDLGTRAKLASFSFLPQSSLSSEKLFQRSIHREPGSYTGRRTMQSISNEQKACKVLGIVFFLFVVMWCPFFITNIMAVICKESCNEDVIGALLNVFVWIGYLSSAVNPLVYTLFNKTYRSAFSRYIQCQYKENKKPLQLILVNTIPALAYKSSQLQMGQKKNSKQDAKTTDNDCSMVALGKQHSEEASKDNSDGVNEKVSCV

Consider `Cc1ccc(NC(=O)CCN2C(=O)CSc3ccccc32)cc1` [Compound 14, 3-(3-Oxo-2,3-dihydro-4H-benzo[b][1,4]thiazin-4-yl)-N-(p-tolyl)propanamide], for which the inhibition at 10 µM came to 15 ± 2% in [1]; 15 ± 1% on human 5-HT2A receptor [4]; 27 ± 2% at human 5-HT1A receptor [5]; 0% on human 5-HT7 receptor; 8 ± 4% in experiment [6]. On human D2S receptor [2], the Ki came out at 676 ± 134 nM. In addition, the Kb is 117 nM at human D2S receptor [3] (forskolin-stimulated cAMP, three independent experiments, read-out: D2 Signalling (cAMP) pKb (Mean ± SEM) (converted)) and 119 nM on human D2S receptor [3] (setting [12]). Also, on human D2S receptor [3], the “efficacy at D2 receptor (mode of action)” value is “antagonism”.

Consider `O=C(CCN1C(=O)CSc2ccccc21)Nc1ccc([N+](=O)[O-])cc1` [Compound 23, N-(4-Nitrophenyl)-3-(3-oxo-2,3-dihydro-4H-benzo[b][1,4]thiazin-4-yl)propanamide], for which the inhibition at 10 µM in experiment [1] was 12 ± 2%; on human 5-HT2A receptor [4], 23 ± 3%; on human 5-HT1A receptor [5], 22 ± 3%; on human 5-HT7 receptor it was 0%; in experiment [6], 4 ± 3%. At human D2S receptor [2], the Ki worked out at 724 ± 114 nM. Further, on human D2S receptor [3] (setting [12]), the Kb is 113 nM. In addition, the “efficacy at D2 receptor (mode of action)” value at human D2S receptor [3] was “antagonism”.

For `O=C(CCN1C(=O)CSc2ccccc21)Nc1ccc(C(F)(F)F)cc1` [Compound D2AAK2], the “activity at serotonin 5-HT2A receptor” value on human 5-HT2A receptor [7] was “not active”. In addition, the “activity at serotonin 5-HT1A receptor” value on human 5-HT1A receptor [8] is “not active”. Further, the “activity at dopamine D1 receptor” value in experiment [9] is “not active”. For the same compound, the Ki at human D2S receptor [10] is 321 ± 25 nM. Also, the “activity at dopamine D3 receptor” value in [11] is listed as “not active”.

`CN1C(=O)CN=C(c2ccccc2)c2cc(Cl)ccc21` [Diazepam, reference compound]: the “time spent in the open arms of the maze” value in the experiment on mice is “statistically significant increase”.
